# Results: ChEMBL document CHEMBL4673347, “Discovery of new thieno[2,3-d]pyrimidine and thiazolo[5,4-d]pyrimidine derivatives as orally active phosphoinositide 3-kinase inhibitors” (Bioorg Med Chem, 2021)
# Active and inactive are the calls of the source. The calls are words filed in the database; no cut-off is given here.
# Tests used:
# [1] = system: NCI-H292; test: Antiproliferative activity against human NCI-H292 cells assessed as reduction in cell viability incubated for 72 hrs measured after 4 hrs of MTT addition by MTT assay; format: functional, cell-based
# [2] = molecular target: Phosphatidylinositol 4,5-bisphosphate 3-kinase catalytic subunit alpha isoform (Homo sapiens, UniProt P42336); test: Inhibition of recombinant human full length His-tagged PI3Kalpha expressed in baculovirus expression system using PIP2 as substrate by ADP-Glo reagent based assay
# [3] = system: HGC-27; test: Antiproliferative activity against human HGC-27 cells assessed as reduction in cell viability incubated for 72 hrs measured after 4 hrs of MTT addition by MTT assay; format: functional, cell-based
# [4] = system: HGC-27; test: Inhibition of PI3K signalling in human HGC-27 cells assessed as reduction in AKT S473 phosphorylation incubated for 3 hrs by Western blot analysis; format: cell-based; conditions: dose 20-1000 nM
# [5] = system: HGC-27; test: Inhibition of PI3K signalling in human HGC-27 cells assessed as reduction in S6RP S235/236 phosphorylation incubated for 3 hrs by Western blot analysis; format: cell-based; conditions: dose 20-1000 nM
# [6] = system: HGC-27; test: Inhibition of PI3K signalling in human HGC-27 cells assessed as reduction in 4E-BP1 phosphorylation incubated for 3 hrs by Western blot analysis; format: cell-based; conditions: dose 20-1000 nM
# [7] = system: HGC-27; test: Induction of cell cycle arrest in human HGC-27 cells assessed as G0/G1 phase incubated for 24 hrs by propidium iodide staining based flow cytometry analysis; format: functional; conditions: dose 20-500 nM
# [8] = system: HGC-27; test: Induction of apoptosis in human HGC-27 cells assessed as viable cells at 500 nM incubated for 24 hrs by annexin V-FITC and propidium iodide based staining based flow cytometry analysis (reference value: 83.7 %); format: functional; conditions: read-out: Activity
# [9] = system: HGC-27; test: Induction of apoptosis in human HGC-27 cells assessed as early apoptotic cells at 500 nM incubated for 24 hrs by annexin V-FITC and propidium iodide based staining based flow cytometry analysis (reference value: 6.22 %); format: functional
# [10] = system: HGC-27; test: Induction of apoptosis in human HGC-27 cells assessed as late apoptotic cells at 500 nM incubated for 24 hrs by annexin V-FITC and propidium iodide based staining based flow cytometry analysis (reference value: 8.15 %); format: functional
# [11] = system: HGC-27; test: Induction of apoptosis in human HGC-27 cells assessed as necrotic cells at 500 nM incubated for 24 hrs by annexin V-FITC and propidium iodide based staining based flow cytometry analysis (reference value: 1.95 %); format: functional
# [12] = molecular target: Phosphatidylinositol 4,5-bisphosphate 3-kinase catalytic subunit beta isoform (Homo sapiens, UniProt P42338); test: Inhibition of recombinant human PI3Kbeta using PIP2 as substrate by ADP-Glo reagent based assay
# [13] = molecular target: Phosphatidylinositol 4,5-bisphosphate 3-kinase catalytic subunit gamma isoform (Homo sapiens, UniProt P48736); test: Inhibition of recombinant human GST-tagged PI3Kgamma (468 to 1203 residues) expressed in insect expression system using PIP2 as substrate by ADP-Glo reagent based assay
# [14] = system: BGC-823; test: Antiproliferative activity against human BGC-823 cells assessed as reduction in cell viability incubated for 72 hrs measured after 4 hrs of MTT addition by MTT assay; format: functional, cell-based
# [15] = system: AGS; test: Antiproliferative activity against human AGS cells assessed as reduction in cell viability incubated for 72 hrs measured after 4 hrs of MTT addition by MTT assay; format: functional, cell-based
# [16] = system: MGC-803; test: Antiproliferative activity against human MGC-803 cells assessed as reduction in cell viability incubated for 72 hrs measured after 4 hrs of MTT addition by MTT assay; format: functional, cell-based
# [17] = system: SNU-638; test: Antiproliferative activity against human SNU-638 cells assessed as reduction in cell viability incubated for 72 hrs measured after 4 hrs of MTT addition by MTT assay; format: functional, cell-based
# [18] = system: SNU-16; test: Antiproliferative activity against human SNU-16 cells assessed as reduction in cell viability incubated for 72 hrs measured after 4 hrs of MTT addition by MTT assay; format: functional, cell-based
# [19] = system: A549; test: Antiproliferative activity against human A549 cells assessed as reduction in cell viability incubated for 72 hrs measured after 4 hrs of MTT addition by MTT assay; format: functional, cell-based
# [20] = system: NCI-H23; test: Antiproliferative activity against human NCI-H23 cells assessed as reduction in cell viability incubated for 72 hrs measured after 4 hrs of MTT addition by MTT assay; format: functional, cell-based
# [21] = system: NCI-H358; test: Antiproliferative activity against human NCI-H358 cells assessed as reduction in cell viability incubated for 72 hrs measured after 4 hrs of MTT addition by MTT assay; format: functional, cell-based
# [22] = system: NCI-H1437; test: Antiproliferative activity against human NCI-H1437 cells assessed as reduction in cell viability incubated for 72 hrs measured after 4 hrs of MTT addition by MTT assay; format: functional, cell-based
# [23] = Kinetic solubility of compound in PBS buffer at pH 7.4; format: physicochemical; conditions: read-out: Kinetic_solubility
# [24] = Apparent permeability across apical to basolateral side in human Caco-2 cells; format: ADME, cell-based
# [25] = Protein binding in plasma (unknown origin) assessed as unbound fraction; format: ADME, cell-free
# [26] = Half life in ICR mouse at 4 mg/kg, iv measured upto 24 hrs by LC-MS/MS analysis; format: ADME, organism-based; conditions: in vivo
# [27] = Clearance in ICR mouse at 4 mg/kg, iv measured upto 24 hrs by LC-MS/MS analysis; format: ADME, organism-based; conditions: in vivo
# [28] = Volume of distribution at steady state in ICR mouse at 4 mg/kg, iv measured upto 24 hrs by LC-MS/MS analysis; format: ADME, organism-based; conditions: in vivo, read-out: Vdss
# [29] = AUC (0 to t) in ICR mouse at 4 mg/kg, iv measured upto 24 hrs by LC-MS/MS analysis; format: ADME, organism-based; set-up: route intravenous, dose 4 mg/kg, time <=24; conditions: in vivo
# [30] = AUC (0 to infinity) in ICR mouse at 4 mg/kg, iv measured upto 24 hrs by LC-MS/MS analysis; format: ADME, organism-based; set-up: route intravenous, dose 4 mg/kg, time <=24; conditions: in vivo
# [31] = Half life in ICR mouse at 40 mg/kg, po measured upto 24 hrs by LC-MS/MS analysis; format: ADME, organism-based; conditions: in vivo
# [32] = Cmax in ICR mouse at 40 mg/kg, po measured upto 24 hrs by LC-MS/MS analysis; format: ADME, organism-based; set-up: route oral, dose 40 mg/kg, time <=24; conditions: in vivo
# [33] = AUC (0 to t) in ICR mouse at 40 mg/kg, po measured upto 24 hrs by LC-MS/MS analysis; format: ADME, organism-based; set-up: route oral, dose 40 mg/kg, time <=24; conditions: in vivo
# [34] = AUC (0 to infinity) in ICR mouse at 40 mg/kg, po measured upto 24 hrs by LC-MS/MS analysis; format: ADME, organism-based; set-up: route oral, dose 40 mg/kg, time <=24; conditions: in vivo
# [35] = system: HGC-27; test: Antitumor activity against human HGC-27 cells xenografted in BALB/c mouse assessed as reduction in Ki67 expression at 20 to 40 mg/kg, po administered for 25 days and measured on day 25 by […] immunohistochemistry; format: functional, organism-based; conditions: dose 20-40 mg/kg, time 25.0 day
# [36] = system: Mus musculus; test: In vivo inhibition of PI3Kalpha in BALB/c mouse assessed as increase in plasma glucose level at 40 mg/kg, po measured after 30 mins; format: functional, organism-based
# [37] = system: Mus musculus; test: In vivo inhibition of PI3Kalpha in BALB/c mouse assessed as increase in plasma insulin level at 40 mg/kg, po measured after 30 mins by ELISA; format: functional, organism-based
# [38] = system: Mus musculus; test: In vivo inhibition of PI3Kalpha in BALB/c mouse assessed as increase in plasma insulin level at 40 mg/kg, po measured after 24 hrs; format: functional, organism-based
# Sequence of Phosphatidylinositol 4,5-bisphosphate 3-kinase catalytic subunit beta isoform (P42338 whole entry, the tested form may be a part, canonical isoform): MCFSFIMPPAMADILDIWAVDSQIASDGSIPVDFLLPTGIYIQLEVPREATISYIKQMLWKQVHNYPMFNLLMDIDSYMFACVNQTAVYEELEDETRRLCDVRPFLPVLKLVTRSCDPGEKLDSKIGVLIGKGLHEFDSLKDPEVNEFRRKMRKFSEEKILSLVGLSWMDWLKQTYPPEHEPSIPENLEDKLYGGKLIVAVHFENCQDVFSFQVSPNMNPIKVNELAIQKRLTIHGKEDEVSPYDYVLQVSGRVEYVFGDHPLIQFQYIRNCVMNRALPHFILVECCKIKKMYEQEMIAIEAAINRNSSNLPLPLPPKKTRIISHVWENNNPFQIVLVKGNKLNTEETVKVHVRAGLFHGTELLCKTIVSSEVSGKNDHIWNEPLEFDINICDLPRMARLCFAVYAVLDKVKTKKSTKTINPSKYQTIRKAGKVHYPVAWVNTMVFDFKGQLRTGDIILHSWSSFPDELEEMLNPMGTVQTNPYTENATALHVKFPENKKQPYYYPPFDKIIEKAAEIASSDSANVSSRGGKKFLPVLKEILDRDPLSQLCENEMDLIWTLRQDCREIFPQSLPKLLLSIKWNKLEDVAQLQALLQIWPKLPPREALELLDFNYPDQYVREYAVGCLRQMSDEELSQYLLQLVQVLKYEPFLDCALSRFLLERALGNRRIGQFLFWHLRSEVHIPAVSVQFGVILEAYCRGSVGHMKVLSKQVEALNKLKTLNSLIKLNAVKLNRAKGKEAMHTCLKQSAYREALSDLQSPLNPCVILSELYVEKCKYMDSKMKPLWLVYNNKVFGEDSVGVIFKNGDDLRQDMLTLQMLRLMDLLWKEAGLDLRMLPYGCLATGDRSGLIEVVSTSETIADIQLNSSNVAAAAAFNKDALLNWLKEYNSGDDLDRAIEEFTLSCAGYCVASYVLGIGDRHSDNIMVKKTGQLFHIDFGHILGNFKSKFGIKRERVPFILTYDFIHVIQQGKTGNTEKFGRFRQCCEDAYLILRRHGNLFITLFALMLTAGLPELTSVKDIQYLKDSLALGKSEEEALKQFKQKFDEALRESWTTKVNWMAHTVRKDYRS
# Sequence of Phosphatidylinositol 4,5-bisphosphate 3-kinase catalytic subunit gamma isoform (P48736 whole entry, the tested form may be a part, canonical isoform): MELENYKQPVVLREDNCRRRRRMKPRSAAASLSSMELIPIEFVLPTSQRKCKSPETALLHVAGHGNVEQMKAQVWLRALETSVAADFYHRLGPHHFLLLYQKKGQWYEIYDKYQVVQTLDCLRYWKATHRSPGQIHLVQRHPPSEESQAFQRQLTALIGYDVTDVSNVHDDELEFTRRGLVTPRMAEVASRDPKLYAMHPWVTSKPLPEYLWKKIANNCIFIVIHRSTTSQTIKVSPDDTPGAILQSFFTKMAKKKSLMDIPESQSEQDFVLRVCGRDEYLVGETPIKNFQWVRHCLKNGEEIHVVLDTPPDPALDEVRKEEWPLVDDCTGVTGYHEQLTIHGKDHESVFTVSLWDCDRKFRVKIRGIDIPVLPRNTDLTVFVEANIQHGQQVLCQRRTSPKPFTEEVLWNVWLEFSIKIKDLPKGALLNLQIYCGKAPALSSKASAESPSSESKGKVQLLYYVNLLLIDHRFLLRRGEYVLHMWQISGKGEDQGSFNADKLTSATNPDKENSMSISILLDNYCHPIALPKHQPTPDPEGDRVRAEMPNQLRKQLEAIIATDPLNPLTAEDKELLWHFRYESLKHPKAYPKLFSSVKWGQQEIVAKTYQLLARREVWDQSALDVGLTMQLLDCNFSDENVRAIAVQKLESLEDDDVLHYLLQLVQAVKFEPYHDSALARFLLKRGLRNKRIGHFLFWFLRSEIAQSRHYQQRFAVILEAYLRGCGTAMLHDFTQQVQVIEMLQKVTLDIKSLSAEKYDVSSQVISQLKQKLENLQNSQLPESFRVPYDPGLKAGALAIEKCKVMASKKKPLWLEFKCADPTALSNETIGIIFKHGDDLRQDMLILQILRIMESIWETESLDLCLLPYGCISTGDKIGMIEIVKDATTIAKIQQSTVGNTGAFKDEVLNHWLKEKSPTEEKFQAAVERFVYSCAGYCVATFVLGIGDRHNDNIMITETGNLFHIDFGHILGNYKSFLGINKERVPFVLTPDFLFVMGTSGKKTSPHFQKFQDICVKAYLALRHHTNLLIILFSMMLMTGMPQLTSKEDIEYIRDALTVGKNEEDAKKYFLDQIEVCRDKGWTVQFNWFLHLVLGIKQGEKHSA
# Sequence of Phosphatidylinositol 4,5-bisphosphate 3-kinase catalytic subunit alpha isoform (P42336 whole entry, canonical isoform): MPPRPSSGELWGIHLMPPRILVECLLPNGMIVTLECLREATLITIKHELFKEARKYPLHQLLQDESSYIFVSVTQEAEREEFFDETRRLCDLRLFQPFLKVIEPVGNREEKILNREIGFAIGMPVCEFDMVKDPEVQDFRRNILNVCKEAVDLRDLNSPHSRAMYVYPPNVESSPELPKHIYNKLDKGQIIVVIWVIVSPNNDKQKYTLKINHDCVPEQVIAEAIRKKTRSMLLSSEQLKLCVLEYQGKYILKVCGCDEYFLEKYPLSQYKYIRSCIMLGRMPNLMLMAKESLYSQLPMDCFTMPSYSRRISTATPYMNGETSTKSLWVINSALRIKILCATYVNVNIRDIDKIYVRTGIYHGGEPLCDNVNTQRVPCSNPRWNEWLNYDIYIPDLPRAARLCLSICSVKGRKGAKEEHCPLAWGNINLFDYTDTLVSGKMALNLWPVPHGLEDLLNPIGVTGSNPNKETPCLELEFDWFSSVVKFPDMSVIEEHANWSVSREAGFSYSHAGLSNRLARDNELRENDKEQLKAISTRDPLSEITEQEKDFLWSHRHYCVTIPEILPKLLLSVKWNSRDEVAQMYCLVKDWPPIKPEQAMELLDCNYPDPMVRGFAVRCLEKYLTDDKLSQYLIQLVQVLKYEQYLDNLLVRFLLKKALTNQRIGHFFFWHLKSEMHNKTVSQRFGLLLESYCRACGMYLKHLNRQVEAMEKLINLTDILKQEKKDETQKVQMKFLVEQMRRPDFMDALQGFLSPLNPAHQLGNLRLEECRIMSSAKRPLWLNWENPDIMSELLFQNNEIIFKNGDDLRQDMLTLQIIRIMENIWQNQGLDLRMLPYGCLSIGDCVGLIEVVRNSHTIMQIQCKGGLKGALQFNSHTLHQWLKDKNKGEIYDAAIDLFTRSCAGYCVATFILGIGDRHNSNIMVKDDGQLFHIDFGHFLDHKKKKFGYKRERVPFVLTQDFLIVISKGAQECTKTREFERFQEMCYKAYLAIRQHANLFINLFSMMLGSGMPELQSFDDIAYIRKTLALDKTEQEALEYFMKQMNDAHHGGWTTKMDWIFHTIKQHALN
IC50 [1] [nM],IC50 [2] [nM],IC50 [12] [nM],IC50 [13] [nM],IC50 [14] [nM],IC50 [15] [nM],IC50 [16] [µM],IC50 [17] [nM],IC50 [18] [µM],IC50 [19] [µM],IC50 [20] [nM],Structure (SMILES),IC50 [3] [nM],inhibition [4],inhibition [5],inhibition [6],Activity [7],viability at 0.5 µM [8] [%],Activity [9] [%],Activity [10] [%],Activity [11] [%],also measured
2700,7.2,50,12,4200,3900,6.8,2400,5.8,7.8,4400,COc1ncc(-c2cc3c(N4CCOCC4)ncnc3s2)cc1NS(=O)(=O)c1ccc(F)cc1F,390,Dose-dependent effect,Dose-dependent effect,Dose-dependent effect,Dose-dependent effect,75.1,15.8,8.87,0.26,IC50 [21]: 5.2 µM; IC50 [22]: 2900 nM; solubility kinetic [23]: 10.3 µM; Papp A→B [24]: 21.1 ×10⁻⁶ cm/s; Fu [25]: 0.3%; half-life [26]: 81.6 min; clearance [27]: 4.6 mL/min/kg; Vd [28]: 0.537 L/kg; AUC(0-t) at 24 h [29]: 14300 ng·h/mL; AUC(0-inf) [30]: 14600 ng·h/mL; half-life [31]: 822 min; Cmax [32]: 22500 ng/mL; AUC(0-t) at 24 h [33]: 143 µg·h/mL; AUC(0-inf) [34]: 187 µg·h/mL; inhibition [35]: Active; inhibition [36]: Active; inhibition [37]: Active; inhibition [38]: inactive
320,1.7,5.3,2,1100,720,0.67,690,3.1,0.62,580,COc1ncc(-c2nc3c(N4CCOCC4)ncnc3s2)cc1NS(=O)(=O)c1ccc(F)cc1F,40,Dose-dependent effect,Dose-dependent effect,Dose-dependent effect,Dose-dependent effect,77.7,17.6,4.53,0.23,IC50 [21]: 1 µM; IC50 [22]: 1100 nM; solubility kinetic [23]: 6.31 µM; Papp A→B [24]: 21.4 ×10⁻⁶ cm/s; Fu [25]: 0.3%; half-life [26]: 135 min; clearance [27]: 2.65 mL/min/kg; Vd [28]: 0.513 L/kg; AUC(0-t) at 24 h [29]: 23200 ng·h/mL; AUC(0-inf) [30]: 25300 ng·h/mL; half-life [31]: 378 min; Cmax [32]: 9610 ng/mL; AUC(0-t) at 24 h [33]: 126 µg·h/mL; AUC(0-inf) [34]: 142 µg·h/mL; inhibition [35]: Active; inhibition [36]: Active; inhibition [37]: Active; inhibition [38]: inactive
